# Laboratory results: publication PMC8161026, “Synthesis and Anticancer Activity Evaluation of 5-[2-Chloro-3-(4-nitrophenyl)-2-propenylidene]-4-thiazolidinones” (Molecules, 2021)
# Assays:
# U251 [1] = assay: cells; conditions: Homo sapiens, U-251, 48 h; for CC50: read-out: LC50
# HL-60(TB) = assay: cells; conditions: Homo sapiens, HL-60, 48 h; for CC50: read-out: LC50
# SNB-75 = assay: cells; conditions: Homo sapiens, SNB-75, 48 h; for CC50: read-out: LC50
# MDA-MB-231/ATCC = assay: NCI DTP 60 cell line screen, SRB; conditions: for GI50 / CC50: Homo sapiens, MDA-MB-231, 48 h; for CC50: read-out: LC50; for TGI: MDA-MB-231/ATCC (Breast Cancer), 48 h, SRB
# K-562 = assay: cells; conditions: Homo sapiens, K562, 48 h; for CC50: read-out: LC50
# 786-0 = assay: cells; conditions: Homo sapiens, 786-0, 48 h; for CC50: read-out: LC50
# EKVX = assay: cells; conditions: Homo sapiens, 48 h; for CC50: read-out: LC50
# RPMI-8226 = assay: cells; conditions: Homo sapiens, RPMI-8226, 48 h; for CC50: read-out: LC50
# SF-539 = assay: NCI DTP 60 cell line screen, SRB; conditions: for GI50 / CC50: Homo sapiens, SF-539, 48 h; for CC50: read-out: LC50; for TGI: SF-539 (CNS Cancer), 48 h, SRB
# MALME-3M = assay: NCI DTP 60 cell line screen, SRB; conditions: 48 h; for GI50 / CC50: Homo sapiens, Malme-3M; for CC50: read-out: LC50; for TGI: MALME-3M (Melanoma), SRB
# ACHN = assay: NCI DTP 60 cell line screen, SRB; conditions: 48 h; for TGI: ACHN (Renal Cancer), SRB; for GI50 / CC50: Homo sapiens, ACHN; for CC50: read-out: LC50
# SF-295 = assay: NCI DTP 60 cell line screen, SRB; conditions: for GI50 / CC50: Homo sapiens, SF-295, 48 h; for CC50: read-out: LC50; for TGI: SF-295 (CNS Cancer), 48 h, SRB
# HOP-62 = HOP-62 (Non-Small Cell Lung Cancer), 48 h, SRB
# SR = conditions: for TGI: SR (Leukemia), 48 h, SRB
# NCI/ADR-Res = assay: NCI DTP 60 cell line screen, SRB; conditions: 48 h; for GI50 / CC50: Homo sapiens, NCI/ADR-RES; for CC50: read-out: LC50; for TGI: NCI/ADR-Res (Breast Cancer), SRB
# HOP-92 = assay: NCI DTP 60 cell line screen, SRB; conditions: for TGI: HOP-92 (Non-Small Cell Lung Cancer), 48 h, SRB; for GI50 / CC50: Homo sapiens, HOP-92, 48 h; for CC50: read-out: LC50
# SK-MEL-5 = assay: NCI DTP 60 cell line screen, SRB; conditions: for GI50 / CC50: Homo sapiens, SK-MEL-5, 48 h; for CC50: read-out: LC50; for TGI: SK-MEL-5 (Melanoma), 48 h, SRB
# IGROV1 = assay: NCI DTP 60 cell line screen, SRB; conditions: for GI50 / CC50: Homo sapiens, IGROV-1, 48 h; for CC50: read-out: LC50; for TGI: IGROV1 (Ovarian Cancer), 48 h, SRB
# T-47D = assay: cells; conditions: Homo sapiens, T47D, 48 h; for CC50: read-out: LC50
# OVCAR-4 = assay: NCI DTP 60 cell line screen, SRB; conditions: for GI50 / CC50: Homo sapiens, OVCAR-4, 48 h; for CC50: read-out: LC50; for TGI: OVCAR-4 (Ovarian Cancer), 48 h, SRB
# SW-620 = assay: cells; conditions: Homo sapiens, SW-620, 48 h; for CC50: read-out: LC50
# BT-549 = assay: NCI DTP 60 cell line screen, SRB; conditions: for TGI: BT-549 (Breast Cancer), 48 h, SRB; for GI50 / CC50: Homo sapiens, BT-549, 48 h; for CC50: read-out: LC50
# SNB-19 = assay: NCI DTP 60 cell line screen, SRB; conditions: for GI50 / CC50: Homo sapiens, SNB-19, 48 h; for CC50: read-out: LC50; for TGI: SNB-19 (CNS Cancer), 48 h, SRB
# U251 [2] = conditions: U251 (CNS Cancer), 48 h, SRB
# A549/ATCC = assay: cells; conditions: Homo sapiens, A549, 48 h; for CC50: read-out: LC50
# HCT-116 = assay: cells; conditions: Homo sapiens, HCT-116, 48 h; for CC50: read-out: LC50
# CAKI-1 = assay: NCI DTP 60 cell line screen, SRB; conditions: for TGI: CAKI-1 (Renal Cancer), 48 h, SRB; for GI50 / CC50: Homo sapiens, CAKI-1, 48 h; for CC50: read-out: LC50
structure (smiles),measurement,setting,value
"O=C1/C(=C/C(Cl)=C/c2ccc([N+](=O)[O-])cc2)SC(=S)N1c1ccc(O)cc1 [Compound 2f, 5-[(Z,2Z)-2-Chloro-3-(4-nitrophenyl)-2-propenylidene]-3-(4-hydroxyphenyl)-2-thioxo-4-thiazolidinone]",GI50,U251 [1],0.368 µM
same,CC50,U251 [1],38.9 µM
same,GI50,HL-60(TB),0.485 µM
same,CC50,HL-60(TB),> 100 µM
same,GI50,SNB-75,25.1 µM
same,CC50,SNB-75,> 100 µM
same,GI50,MDA-MB-231/ATCC,2.18 µM
same,CC50,MDA-MB-231/ATCC,92.1 µM
same,TGI,MDA-MB-231/ATCC,12.2 µM
same,GI50,K-562,0.521 µM
same,CC50,K-562,> 100 µM
same,GI50,786-0,2.04 µM
same,CC50,786-0,7.18 µM
same,GI50,EKVX,2.37 µM
same,CC50,EKVX,> 100 µM
same,GI50,RPMI-8226,< 0.01 µM
same,CC50,RPMI-8226,> 100 µM
same,GI50,SF-539,0.0252 µM
same,CC50,SF-539,28.1 µM
same,TGI,SF-539,0.242 µM
same,GI50,MALME-3M,6.53 µM
same,CC50,MALME-3M,94.5 µM
same,TGI,MALME-3M,27.6 µM
same,TGI,ACHN,3.51 µM
same,GI50,ACHN,1.7 µM
same,CC50,ACHN,7.27 µM
same,GI50,SF-295,2.26 µM
same,CC50,SF-295,> 100 µM
same,TGI,SF-295,13.8 µM
same,TGI,HOP-62,5.22 µM
same,TI (Therapeutic Index),SR; GI50 (normal blood lymphocyte)/GI50 (SR),">10,000"
same,TGI,SR,0.138 µM
same,GI50,NCI/ADR-Res,2.17 µM
same,CC50,NCI/ADR-Res,> 100 µM
same,TGI,NCI/ADR-Res,6.13 µM
same,TGI,HOP-92,39.4 µM
same,GI50,HOP-92,8.53 µM
same,CC50,HOP-92,> 100 µM
same,GI50,SK-MEL-5,< 0.01 µM
same,CC50,SK-MEL-5,3.41 µM
same,TGI,SK-MEL-5,< 0.01 µM
same,GI50,IGROV1,1.63 µM
same,CC50,IGROV1,> 100 µM
same,TGI,IGROV1,6.13 µM
same,GI50,T-47D,1.55 µM
same,CC50,T-47D,> 100 µM
same,GI50,OVCAR-4,2.63 µM
same,CC50,OVCAR-4,> 100 µM
same,TGI,OVCAR-4,> 100 µM
same,GI50,SW-620,0.037 µM
same,CC50,SW-620,> 100 µM
same,TGI,BT-549,7.71 µM
same,GI50,BT-549,1.55 µM
same,CC50,BT-549,> 100 µM
same,GI50,SNB-19,10 µM
same,CC50,SNB-19,97.5 µM
same,TGI,SNB-19,32.0 µM
same,TGI,U251 [2],3.06 µM
same,GI50,A549/ATCC,2.25 µM
same,CC50,A549/ATCC,> 100 µM
same,GI50,HCT-116,1.27 µM
same,CC50,HCT-116,6.92 µM
same,TGI,CAKI-1,> 100 µM
same,GI50,CAKI-1,4.44 µM
same,CC50,CAKI-1,> 100 µM
"O=C(O)CCN1C(=O)/C(=C/C(Cl)=C/c2ccc([N+](=O)[O-])cc2)SC1=S [Compound 2h, 3-{5-[(Z,2Z)-2-Chloro-3-(4-nitrophenyl)-2-propenylidene]-4-oxo-2-thioxothiazolidin-3-yl}propanoic acid]",GI50,U251 [1],0.149 µM
same,CC50,U251 [1],> 100 µM
same,GI50,HL-60(TB),0.347 µM
same,CC50,HL-60(TB),> 100 µM
same,GI50,SNB-75,12.5 µM
same,CC50,SNB-75,> 100 µM
same,GI50,MDA-MB-231/ATCC,1.08 µM
same,CC50,MDA-MB-231/ATCC,25.9 µM
same,TGI,MDA-MB-231/ATCC,4.86 µM
same,GI50,K-562,0.212 µM
same,CC50,K-562,> 100 µM
same,GI50,786-0,1.13 µM
same,CC50,786-0,5.42 µM
same,GI50,EKVX,0.334 µM
same,CC50,EKVX,55.6 µM
same,GI50,RPMI-8226,0.138 µM
same,CC50,RPMI-8226,> 100 µM
same,GI50,SF-539,< 0.01 µM
same,CC50,SF-539,25.8 µM
same,TGI,SF-539,0.267 µM
same,GI50,MALME-3M,9.7 µM
same,CC50,MALME-3M,> 100 µM
same,TGI,MALME-3M,61.9 µM
same,TGI,ACHN,2.42 µM
same,GI50,ACHN,1.02 µM
same,CC50,ACHN,5.76 µM
same,GI50,SF-295,3.36 µM
same,CC50,SF-295,> 100 µM
same,TGI,SF-295,21.6 µM
same,TGI,HOP-62,19.9 µM
same,TGI,SR,1.41 µM
same,GI50,NCI/ADR-Res,0.407 µM
same,CC50,NCI/ADR-Res,6.43 µM
same,TGI,NCI/ADR-Res,2.11 µM
same,TGI,HOP-92,18.3 µM
same,GI50,HOP-92,4.81 µM
same,CC50,HOP-92,50.7 µM
same,GI50,SK-MEL-5,0.0193 µM
same,CC50,SK-MEL-5,1.88 µM
same,TGI,SK-MEL-5,0.0849 µM
same,GI50,IGROV1,0.794 µM
same,CC50,IGROV1,43.1 µM
same,TGI,IGROV1,3.68 µM
same,GI50,T-47D,0.363 µM
same,CC50,T-47D,> 100 µM
same,GI50,OVCAR-4,2.66 µM
same,CC50,OVCAR-4,56.2 µM
same,TGI,OVCAR-4,14.9 µM
same,GI50,SW-620,< 0.01 µM
same,CC50,SW-620,> 100 µM
same,TGI,BT-549,0.920 µM
same,GI50,BT-549,0.247 µM
same,CC50,BT-549,36.3 µM
same,GI50,SNB-19,0.658 µM
same,CC50,SNB-19,83.7 µM
same,TGI,SNB-19,26.3 µM
same,TGI,U251 [2],2.00 µM
same,GI50,A549/ATCC,1.76 µM
same,CC50,A549/ATCC,> 100 µM
same,GI50,HCT-116,0.27 µM
same,CC50,HCT-116,> 100 µM
same,TGI,CAKI-1,6.14 µM
same,GI50,CAKI-1,0.485 µM
same,CC50,CAKI-1,47.1 µM
